Results published in article PMC10088252.

Conditions: 600 mg QD (n=10)

In the case of O=C(Nc1ccc(Oc2ccnc3c2CCN3)c(F)c1)c1c[nH]cc(-c2ccc(F)cc2)c1=O, the “TRAE Decreased Ccr, any grade” value is reported as 2 (20.0) n (%), the “TRAE Decreased Ccr, grade 3-4” value is reported as 0 n (%) and the “TRAE Decreased appetite, any grade” value is reported as 1 (10.0) n (%). For the same molecule, the “TRAE Decreased appetite, grade 3-4” value was 1 (10.0) n (%), the “TRAE Diarrhoea, any grade” value was 1 (10.0) n (%) and the “TRAE Diarrhoea, grade 3-4” value was 0 n (%). The “TRAE Dizziness, any grade” value was 0 n (%), the “TRAE Dizziness, grade 3-4” value was 0 n (%) and the “TRAE Dry mouth, any grade” value was 0 n (%). The “TRAE Dry mouth, grade 3-4” value was 0 n (%), the “TRAE Dysgeusia, any grade” value was 5 (50.0) n (%) and the “TRAE Dysgeusia, grade 3-4” value was 1 (10.0) n (%). For the same molecule, the “TRAE Dyskinesia, any grade” value was 1 (10.0) n (%), the “TRAE Dyskinesia, grade 3-4” value was 1 (10.0) n (%) and the “TRAE Dysphonia, any grade” value was 1 (10.0) n (%). The “TRAE Dysphonia, grade 3-4” value was 0 n (%), the “TRAE Dyspnoea, any grade” value was 1 (10.0) n (%) and the “TRAE Dyspnoea, grade 3-4” value was 1 (10.0) n (%). For the same molecule, the “TRAE Electrocardiogram QT prolonged, any grade” value was 0 n (%), the “TRAE Electrocardiogram QT prolonged, grade 3-4” value was 0 n (%) and the “TRAE Elevated ALT, any grade” value was 3 (30.0) n (%). The “TRAE Elevated ALT, grade 3-4” value was 0 n (%), the “TRAE Elevated AST, any grade” value was 1 (10.0) n (%) and the “TRAE Elevated AST, grade 3-4” value was 0 n (%). For the same molecule, the “TRAE Elevated D dimer, any grade” value was 1 (10.0) n (%), the “TRAE Elevated D dimer, grade 3-4” value was 0 n (%) and the “TRAE Elevated GGT, any grade” value was 0 n (%). For the same molecule, the “TRAE Elevated GGT, grade 3-4” value was 0 n (%), the “TRAE Elevated LDH, any grade” value was 0 n (%) and the “TRAE Elevated LDH, grade 3-4” value was 0 n (%). The “TRAE Elevated alpha-HBDH, any grade” value was 0 n (%), the “TRAE Elevated alpha-HBDH, grade 3-4” value was 0 n (%) and the “TRAE Elevated bilirubin, any grade” value was 2 (20.0) n (%). The “TRAE Elevated bilirubin, grade 3-4” value was 0 n (%), the “TRAE Elevated blood creatinine, any grade” value was 1 (10.0) n (%) and the “TRAE Elevated blood creatinine, grade 3-4” value was 0 n (%). For the same molecule, the “TRAE Elevated creatine phosphokinase, any grade” value was 0 n (%), the “TRAE Elevated creatine phosphokinase, grade 3-4” value was 0 n (%) and the “TRAE Elevated serum urea, any grade” value was 0 n (%). The “TRAE Elevated serum urea, grade 3-4” value was 0 n (%), the “TRAE Elevated troponin, any grade” value was 0 n (%) and the “TRAE Elevated troponin, grade 3-4” value was 0 n (%). For the same molecule, the “TRAE Genital rash, any grade” value was 1 (10.0) n (%), the “TRAE Genital rash, grade 3-4” value was 0 n (%) and the “TRAE Haematuria, any grade” value was 0 n (%). The “TRAE Haematuria, grade 3-4” value was 0 n (%), the “TRAE Headache, any grade” value was 0 n (%) and the “TRAE Headache, grade 3-4” value was 0 n (%). For the same molecule, the “TRAE Hyperhidrosis, any grade” value was 0 n (%), the “TRAE Hyperhidrosis, grade 3-4” value was 0 n (%) and the “TRAE Hyperlipidaemia, any grade” value was 0 n (%). For the same molecule, the “TRAE Hyperlipidaemia, grade 3-4” value was 0 n (%), the “TRAE Hypertension, any grade” value was 2 (20.0) n (%) and the “TRAE Hypertension, grade 3-4” value was 1 (10.0) n (%). For the same molecule, the “TRAE Hypoaesthesia oral, any grade” value was 0 n (%), the “TRAE Hypoaesthesia oral, grade 3-4” value was 0 n (%) and the “TRAE Hypocalcaemia, any grade” value was 1 (10.0) n (%). For the same molecule, the “TRAE Hypocalcaemia, grade 3-4” value was 0 n (%), the “TRAE Hypotension, any grade” value was 0 n (%) and the “TRAE Hypotension, grade 3-4” value was 0 n (%). The “TRAE Insomnia, any grade” value was 0 n (%), the “TRAE Insomnia, grade 3-4” value was 0 n (%) and the “TRAE Leukopenia, any grade” value was 1 (10.0) n (%). The “TRAE Leukopenia, grade 3-4” value was 0 n (%), the “TRAE Nausea, any grade” value was 0 n (%) and the “TRAE Nausea, grade 3-4” value was 0 n (%). For the same molecule, the “TRAE Neuritis, any grade” value was 2 (20.0) n (%), the “TRAE Neuritis, grade 3-4” value was 0 n (%) and the “TRAE Occult blood, any grade” value was 1 (10.0) n (%). The “TRAE Occult blood, grade 3-4” value was 0 n (%), the “TRAE Oedema peripheral, any grade” value was 1 (10.0) n (%) and the “TRAE Oedema peripheral, grade 3-4” value was 0 n (%). The “TRAE Onycholysis, any grade” value was 0 n (%), the “TRAE Onycholysis, grade 3-4” value was 0 n (%) and the “TRAE Oropharyngeal pain, any grade” value was 1 (10.0) n (%). The “TRAE Oropharyngeal pain, grade 3-4” value was 1 (10.0) n (%), the “TRAE PPE, any grade” value was 1 (10.0) n (%) and the “TRAE PPE, grade 3-4” value was 0 n (%). For the same molecule, the “TRAE Paraesthesia, any grade” value was 0 n (%), the “TRAE Paraesthesia, grade 3-4” value was 0 n (%) and the “TRAE Proteinuria, any grade” value was 1 (10.0) n (%). The “TRAE Proteinuria, grade 3-4” value was 0 n (%), the “TRAE Pruritus, any grade” value was 0 n (%) and the “TRAE Pruritus, grade 3-4” value was 0 n (%).
